Assay results published in patent US20070026408A1, “Materials and methods for analysis of atp-binding cassette transporter gene expression” (priority 2003, published 2007).
Where a name gives a salt, the structure may show the parent alone.

Key:
Conditions in all cases: HepG2, doxorubicin HCl 25 nM, standard 11
abcC7 = experiment: DT1 microarray drug screening, drug-treated HepG2: abcC7; format: cell-based, human
Description: (§1) The labelled cDNA target preparation was thawed and the 150 μl added to 850 ul hybridisation buffer (500 mM sodium Phosphate pH 6.0, 1% SDS, 1% BSA, 1 mM EDTA) in a 1.5 ml microtube and heated at 95° C. for 10 min.

abcD1 = experiment: DT1 microarray drug screening, drug-treated HepG2: abcD1; format: cell-based, human
Description: as §1

abcA10 = experiment: DT1 microarray drug screening, drug-treated HepG2: abcA10; format: cell-based, human
Description: as §1

abcC12 = experiment: DT1 microarray drug screening, drug-treated HepG2: abcC12; format: cell-based, human
Description: as §1

abcA6 = experiment: DT1 microarray drug screening, drug-treated HepG2: abcA6; format: cell-based, human
Description: as §1

abcC11 = experiment: DT1 microarray drug screening, drug-treated HepG2: abcC11; format: cell-based, human
Description: as §1

abcA9 = experiment: DT1 microarray drug screening, drug-treated HepG2: abcA9; format: cell-based, human
Description: as §1

abcB8 = experiment: DT1 microarray drug screening, drug-treated HepG2: abcB8; format: cell-based, human
Description: as §1

abcA4 = experiment: DT1 microarray drug screening, drug-treated HepG2: abcA4; format: cell-based, human
Description: as §1

abcB10 = experiment: DT1 microarray drug screening, drug-treated HepG2: abcB10
abcC3 = experiment: DT1 microarray drug screening, drug-treated HepG2: abcC3; format: cell-based, human
Description: as §1

abcD2 = experiment: DT1 microarray drug screening, drug-treated HepG2: abcD2; format: cell-based, human
Description: as §1

abcB6 = experiment: DT1 microarray drug screening, drug-treated HepG2: abcB6; format: cell-based, human
Description: as §1

abcF2 = experiment: DT1 microarray drug screening, drug-treated HepG2: abcF2; format: cell-based, human
Description: as §1

abcD4 = experiment: DT1 microarray drug screening, drug-treated HepG2: abcD4; format: cell-based, human
Description: as §1

abcG2 = experiment: DT1 microarray drug screening, drug-treated HepG2: abcG2; format: cell-based, human
Description: as §1

abcC6 = experiment: DT1 microarray drug screening, drug-treated HepG2: abcC6; format: cell-based, human
Description: as §1

abcG1 = experiment: DT1 microarray drug screening, drug-treated HepG2: abcG1; format: cell-based, human
Description: as §1

abcD3 = experiment: DT1 microarray drug screening, drug-treated HepG2: abcD3; format: cell-based, human
Description: as §1

abcG8 = experiment: DT1 microarray drug screening, drug-treated HepG2: abcG8; format: cell-based, human
Description: as §1

abcF1 = experiment: DT1 microarray drug screening, drug-treated HepG2: abcF1; format: cell-based, human
Description: as §1

abcG5 = experiment: DT1 microarray drug screening, drug-treated HepG2: abcG5; format: cell-based, human
Description: as §1

abcC5 = experiment: DT1 microarray drug screening, drug-treated HepG2: abcC5; format: cell-based, human
Description: as §1

abcF3 = experiment: DT1 microarray drug screening, drug-treated HepG2: abcF3; format: cell-based, human
Description: as §1

COc1cccc2c1C(=O)c1c(O)c3c(c(O)c1C2=O)C[C@@](O)(C(=O)CO)C[C@@H]3O[C@H]1C[C@H](N)[C@H](O)[C@H](C)O1 [dox, doxorubicin HCl]
relative level of abcC7 gene expression (abcC7; 4 h): 4.5794
relative level of abcC7 gene expression (abcC7; 8 h): 5.093
relative level of abcD1 gene expression (abcD1; 2 h): 4.477
relative level of abcD1 gene expression (abcD1; 4 h): 3.386
relative level of abcD1 gene expression (abcD1; 8 h): 3.516
relative level of abcA10 gene expression (abcA10; 2 h): 4.82
relative level of abcA10 gene expression (abcA10; 4 h): 3.419
relative level of abcA10 gene expression (abcA10; 8 h): 3.793
relative level of abcC12 gene expression (abcC12; 2 h): 5.226
relative level of abcC12 gene expression (abcC12; 4 h): 3.532
relative level of abcC12 gene expression (abcC12; 8 h): 3.976
relative level of abcA6 gene expression (abcA6; 2 h): 6.045
relative level of abcA6 gene expression (abcA6; 4 h): 3.367
relative level of abcA6 gene expression (abcA6; 8 h): 4.296
relative level of abcC11 gene expression (abcC11; 2 h): 7.608
relative level of abcC11 gene expression (abcC11; 4 h): 4.384
relative level of abcC11 gene expression (abcC11; 8 h): 5.056
relative level of abcA9 gene expression (abcA9; 2 h): 7.825
relative level of abcA9 gene expression (abcA9; 4 h): 4.817
relative level of abcA9 gene expression (abcA9; 8 h): 5.72
relative level of abcB8 gene expression (abcB8; 2 h): 8.004
relative level of abcB8 gene expression (abcB8; 4 h): 5.438
relative level of abcB8 gene expression (abcB8; 8 h): 5.353
relative level of abcA4 gene expression (abcA4; 2 h): 8.765
relative level of abcA4 gene expression (abcA4; 4 h): 4.535
relative level of abcA4 gene expression (abcA4; 8 h): 6.099
relative level of abcB10 gene expression (abcB10; 2 h): 2.116
relative level of abcB10 gene expression (abcB10; 4 h): 1.484
relative level of abcB10 gene expression (abcB10; 8 h): 1.542
relative level of abcC3 gene expression (abcC3; 2 h): 7.156
relative level of abcC3 gene expression (abcC3; 4 h): 4.014
relative level of abcC3 gene expression (abcC3; 8 h): 4.2
relative level of abcD2 gene expression (abcD2; 2 h): 2.503
relative level of abcD2 gene expression (abcD2; 4 h): 2.516
relative level of abcD2 gene expression (abcD2; 8 h): 2.409
relative level of abcB6 gene expression (abcB6; 2 h): 5.174
relative level of abcB6 gene expression (abcB6; 4 h): 3.283
relative level of abcB6 gene expression (abcB6; 8 h): 3.612
relative level of abcF2 gene expression (abcF2; 2 h): 5.979
relative level of abcF2 gene expression (abcF2; 4 h): 4.068
relative level of abcF2 gene expression (abcF2; 8 h): 4.807
relative level of abcD4 gene expression (abcD4; 2 h): 4.361
relative level of abcD4 gene expression (abcD4; 4 h): 3.103
relative level of abcD4 gene expression (abcD4; 8 h): 3.194
relative level of abcG2 gene expression (abcG2; 2 h): 2.989
relative level of abcG2 gene expression (abcG2; 4 h): 2.137
relative level of abcG2 gene expression (abcG2; 8 h): 2.08
relative level of abcC6 gene expression (abcC6; 2 h): 7.696
relative level of abcC6 gene expression (abcC6; 4 h): 4.516
relative level of abcC6 gene expression (abcC6; 8 h): 4.899
relative level of abcG1 gene expression (abcG1; 2 h): 5.472
relative level of abcG1 gene expression (abcG1; 4 h): 3.555
relative level of abcG1 gene expression (abcG1; 8 h): 3.839
relative level of abcD3 gene expression (abcD3; 2 h): 2.099
relative level of abcD3 gene expression (abcD3; 4 h): 1.787
relative level of abcD3 gene expression (abcD3; 8 h): 1.733
relative level of abcG8 gene expression (abcG8; 2 h): 4.697
relative level of abcG8 gene expression (abcG8; 4 h): 2.811
relative level of abcG8 gene expression (abcG8; 8 h): 2.9413
relative level of abcF1 gene expression (abcF1; 2 h): 2.485
relative level of abcF1 gene expression (abcF1; 4 h): 2.87
relative level of abcF1 gene expression (abcF1; 8 h): 2.662
relative level of abcG5 gene expression (abcG5; 2 h): 2.201
relative level of abcG5 gene expression (abcG5; 4 h): 1.764
relative level of abcG5 gene expression (abcG5; 8 h): 1.752
relative level of abcC5 gene expression (abcC5; 2 h): 10.51
relative level of abcC5 gene expression (abcC5; 4 h): 6.29
relative level of abcC5 gene expression (abcC5; 8 h): 6.522
relative level of abcF3 gene expression (abcF3; 2 h): 3.921
relative level of abcF3 gene expression (abcF3; 4 h): 2.795
relative level of abcF3 gene expression (abcF3; 8 h): 2.793
